From PubChem BioAssay AID1259407 (Chemical Carcinogenesis Research Information System (CCRIS), 2018)
Active and inactive are the calls of the source. The rule behind the calls is not given here.

Test system: CCRIS mutagenicity, Ames/micronucleus/aberration tests
Assay: CCRIS mutagenicity studies
[1] = Test System: AMES SALMONELLA TYPHIMURIUM, Strain/Indicator: TA98, Metabolic Activation: NONE, Method: PREINCUBATION
[2] = Test System: AMES SALMONELLA TYPHIMURIUM, Strain/Indicator: TA100, Metabolic Activation: NONE, Method: PREINCUBATION
[3] = Test System: AMES SALMONELLA TYPHIMURIUM, Strain/Indicator: TA98, Metabolic Activation: NONE, Method: STANDARD PLATE
[4] = Test System: AMES SALMONELLA TYPHIMURIUM, Strain/Indicator: TA98, Metabolic Activation: RAT, LIVER, S-9, AROCLOR 1254, Method: STANDARD PLATE
[5] = Test System: AMES SALMONELLA TYPHIMURIUM, Strain/Indicator: TA100, Metabolic Activation: NONE, Method: STANDARD PLATE
[6] = Test System: AMES SALMONELLA TYPHIMURIUM, Strain/Indicator: TA100, Metabolic Activation: RAT, LIVER, S-9, AROCLOR 1254, Method: STANDARD PLATE
[7] = Test System: AMES SALMONELLA TYPHIMURIUM, Strain/Indicator: TA1535, Metabolic Activation: NONE, Method: STANDARD PLATE
[8] = Test System: AMES SALMONELLA TYPHIMURIUM, Strain/Indicator: TA1537, Metabolic Activation: NONE, Method: STANDARD PLATE

COc1cc(-c2ccc(N/N=C3\C=C(S(=O)(=O)O)c4ccccc4C3=O)c(OC)c2)ccc1N/N=C1/C=C(S(=O)(=O)O)c2ccccc2C1=O
mutagenic call (Test System: AMES SALMONELLA TYPHIMURIUM, Strain/Indicator: TA98, Metabolic Activation: HAMSTER, LIVER, S-9, AROCLOR 1254 (10%), Method: PREINCUBATION): inactive; negative | mutagenic call [1]: inactive; negative | mutagenic call (Test System: AMES SALMONELLA TYPHIMURIUM, Strain/Indicator: TA98, Metabolic Activation: RAT, LIVER, S-9, AROCLOR 1254 (10%), Method: PREINCUBATION): inactive; negative | mutagenic call (Test System: AMES SALMONELLA TYPHIMURIUM, Strain/Indicator: TA100, Metabolic Activation: HAMSTER, LIVER, S-9, AROCLOR 1254 (10%), Method: PREINCUBATION): inactive; negative | mutagenic call [2]: inactive; negative | mutagenic call (Test System: AMES SALMONELLA TYPHIMURIUM, Strain/Indicator: TA100, Metabolic Activation: RAT, LIVER, S-9, AROCLOR 1254 (10%), Method: PREINCUBATION): inactive; negative | mutagenic call (Test System: AMES SALMONELLA TYPHIMURIUM, Strain/Indicator: TA1535, Metabolic Activation: HAMSTER, LIVER, S-9, AROCLOR 1254 (10%), Method: PREINCUBATION): inactive; negative | mutagenic call (Test System: AMES SALMONELLA TYPHIMURIUM, Strain/Indicator: TA1535, Metabolic Activation: NONE, Method: PREINCUBATION): inactive; negative | mutagenic call (Test System: AMES SALMONELLA TYPHIMURIUM, Strain/Indicator: TA1535, Metabolic Activation: RAT, LIVER, S-9, AROCLOR 1254 (10%), Method: PREINCUBATION): inactive; negative | mutagenic call (Test System: AMES SALMONELLA TYPHIMURIUM, Strain/Indicator: TA1537, Metabolic Activation: HAMSTER, LIVER, S-9, AROCLOR 1254 (10%), Method: PREINCUBATION): inactive; negative | mutagenic call (Test System: AMES SALMONELLA TYPHIMURIUM, Strain/Indicator: TA1537, Metabolic Activation: NONE, Method: PREINCUBATION): inactive; negative | mutagenic call (Test System: AMES SALMONELLA TYPHIMURIUM, Strain/Indicator: TA1537, Metabolic Activation: RAT, LIVER, S-9, AROCLOR 1254 (10%), Method: PREINCUBATION): inactive; negative | mutagenic call (Test System: AMES SALMONELLA TYPHIMURIUM, Strain/Indicator: TA1538, Metabolic Activation: RAT, LIVER, S-9, AROCLOR 1254, Method: STANDARD PLATE): inactive; negative

O=[N+]([O-])c1ccc2c3c1ccc1cccc(c13)[C@@H]1O[C@H]21
mutagenic call (Test System: AMES SALMONELLA TYPHIMURIUM, Strain/Indicator: TA98(1,8-DNP6), Metabolic Activation: RAT, LIVER, S-9, PHENOBARBITAL AND 5,6-BENZOFLAVONE, Method: PREINCUBATION): active; positive | mutagenic call (Test System: AMES SALMONELLA TYPHIMURIUM, Strain/Indicator: TA98(NR), Metabolic Activation: NONE, Method: PREINCUBATION): active; positive | mutagenic call [1]: active; positive | mutagenic call (Test System: AMES SALMONELLA TYPHIMURIUM, Strain/Indicator: TA98, Metabolic Activation: RAT, LIVER, S-9, PHENOBARBITAL AND 5,6-BENZOFLAVONE, Method: PREINCUBATION): active; positive | mutagenic call [2]: active; positive | mutagenic call (Test System: AMES SALMONELLA TYPHIMURIUM, Strain/Indicator: TA100, Metabolic Activation: RAT, LIVER, S-9, PHENOBARBITAL AND 5,6-BENZOFLAVONE, Method: PREINCUBATION): active; positive | mutagenic call (Test System: CHINESE HAMSTER OVARY, Strain/Indicator: CHO (HGPRT)/6-THIOGUANINE, Metabolic Activation: NONE, Method: STANDARD PLATE): active; positive | mutagenic call (Test System: CHINESE HAMSTER OVARY, Strain/Indicator: CHO (HGPRT)/6-THIOGUANINE, Metabolic Activation: RAT, LIVER, S-9, AROCLOR 1254, Method: STANDARD PLATE): active; positive | mutagenic call (Test System: UDS RODENT HEPATOCYTES, Strain/Indicator: THY INCORP, Metabolic Activation: NONE, Method: AUTORADIOGRAPHY): active; positive

CC(=O)Oc1c2ccccc2c2ccc3cccc4ccc1c2c43
mutagenic call (Test System: UDS RODENT PRIMARY CELLS, Strain/Indicator: THY INCORP (NON-S-PHASE), Metabolic Activation: NONE, Method: AUTORADIOGRAPHY): active; positive

CC(C)[C@@H]1CC[C@@H](C)C[C@H]1O
mutagenic call (Test System: AMES SALMONELLA TYPHIMURIUM, Strain/Indicator: TA97, Metabolic Activation: NONE, Method: PREINCUBATION): inactive; negative | mutagenic call (Test System: AMES SALMONELLA TYPHIMURIUM, Strain/Indicator: TA97, Metabolic Activation: RAT, LIVER, S-9, AROCLOR 1254, Method: PREINCUBATION): inactive; negative | mutagenic call (Test System: AMES SALMONELLA TYPHIMURIUM, Strain/Indicator: TA97A, Metabolic Activation: NONE, Method: STANDARD PLATE): inactive; negative | mutagenic call (Test System: AMES SALMONELLA TYPHIMURIUM, Strain/Indicator: TA97A, Metabolic Activation: RAT LIVER S-9, AROCLOR 1254, Method: STANDARD PLATE): inactive; negative | mutagenic call [3]: inactive; negative | mutagenic call (Test System: AMES SALMONELLA TYPHIMURIUM, Strain/Indicator: TA98, Metabolic Activation: RAT LIVER S-9, AROCLOR 1254, Method: STANDARD PLATE): inactive; negative | mutagenic call [4]: inactive; negative | mutagenic call [5]: inactive; negative | mutagenic call (Test System: AMES SALMONELLA TYPHIMURIUM, Strain/Indicator: TA100, Metabolic Activation: RAT LIVER S-9, AROCLOR 1254, Method: STANDARD PLATE): inactive; negative | mutagenic call [6]: inactive; negative | mutagenic call (Test System: AMES SALMONELLA TYPHIMURIUM, Strain/Indicator: TA102, Metabolic Activation: NONE, Method: PREINCUBATION): inactive; negative | mutagenic call (Test System: AMES SALMONELLA TYPHIMURIUM, Strain/Indicator: TA102, Metabolic Activation: NONE, Method: STANDARD PLATE): inactive; negative | mutagenic call (Test System: AMES SALMONELLA TYPHIMURIUM, Strain/Indicator: TA102, Metabolic Activation: RAT LIVER S-9, AROCLOR 1254, Method: STANDARD PLATE): inactive; negative | mutagenic call (Test System: AMES SALMONELLA TYPHIMURIUM, Strain/Indicator: TA102, Metabolic Activation: RAT, LIVER, S-9, AROCLOR 1254, Method: PREINCUBATION): inactive; negative | mutagenic call [7]: inactive; negative | mutagenic call (Test System: AMES SALMONELLA TYPHIMURIUM, Strain/Indicator: TA1535, Metabolic Activation: RAT, LIVER, S-9, AROCLOR 1254, Method: STANDARD PLATE): inactive; negative | mutagenic call [8]: inactive; negative | mutagenic call (Test System: AMES SALMONELLA TYPHIMURIUM, Strain/Indicator: TA1537, Metabolic Activation: RAT, LIVER, S-9, AROCLOR 1254, Method: STANDARD PLATE): inactive; negative

O=[N+]([O-])c1c2c(c3ccc4cccc5ccc1c3c45)CCCC2O (stereo not drawn)
mutagenic call [3]: inactive; negative | mutagenic call [5]: inactive; negative

Nc1snc2ccc([N+](=O)[O-])cc12
mutagenic call [3]: active; positive | mutagenic call (Test System: AMES SALMONELLA TYPHIMURIUM, Strain/Indicator: TA98, Metabolic Activation: S-9, Method: STANDARD PLATE): active; positive | mutagenic call [5]: active; positive | mutagenic call (Test System: AMES SALMONELLA TYPHIMURIUM, Strain/Indicator: TA100, Metabolic Activation: S-9, Method: STANDARD PLATE): active; positive | mutagenic call [7]: inactive; negative | mutagenic call (Test System: AMES SALMONELLA TYPHIMURIUM, Strain/Indicator: TA1535, Metabolic Activation: S-9, Method: STANDARD PLATE): inactive; negative | mutagenic call [8]: active; positive | mutagenic call (Test System: AMES SALMONELLA TYPHIMURIUM, Strain/Indicator: TA1537, Metabolic Activation: S-9, Method: STANDARD PLATE): active; positive

CC(C)(C)NCC(O)c1ccc(O)c(NC(N)=O)c1 (stereo not drawn)
mutagenic call [3]: inactive; negative | mutagenic call [4]: inactive; negative | mutagenic call [5]: inactive; negative | mutagenic call [6]: inactive; negative

O=[N+]([O-])c1c(-c2ccc(Cl)cc2)nc2n1CCS2
mutagenic call [3]: inactive; negative | mutagenic call [5]: active; positive | mutagenic call [7]: inactive; negative | mutagenic call [8]: active; positive | mutagenic call (Test System: AMES SALMONELLA TYPHIMURIUM, Strain/Indicator: TA1538, Metabolic Activation: NONE, Method: STANDARD PLATE): inactive; negative

CCC(=O)N(O)c1ccc2ccccc2c1
mutagenic call [1]: inactive; negative | mutagenic call (Test System: AMES SALMONELLA TYPHIMURIUM, Strain/Indicator: TA98, Metabolic Activation: RAT, LIVER, CYTOSOL, Method: PREINCUBATION): inactive; negative | mutagenic call (Test System: AMES SALMONELLA TYPHIMURIUM, Strain/Indicator: TA98, Metabolic Activation: RAT, LIVER, MICROSOMES, Method: PREINCUBATION): active; positive
